# Assay results published in ChEMBL document CHEMBL3046634, “Synthesis of some 1,3,4-thiadiazole derivatives as inhibitors of Entamoeba histolytica” (Med Chem Res, 2013).
# Tests used:
# [1] = system: Entamoeba histolytica; experiment: Antiamoebic activity against trophozoites of Entamoeba histolytica HM-1:IMSS after 72 hr by eosin stain-based spectrophotometric analysis; format: functional, organism-based
# [2] = system: MCF7; experiment: Cytotoxicity against Homo sapiens (human) MCF7 cells after 48 hr by MTT assay; format: cell-based; settings: MCF7, 48 h
SMILES,IC50 [1] [µM],IC50 [2] [µM]
Nc1nnc(-c2ccccc2)s1,5.46,–
Cc1ncc([N+](=O)[O-])n1CCO [METRONIDAZOLE],–,> 250
